US11787780B2 (CORCEPT THERAPEUTICS INCORPORATED, priority 2020, dated 2023)

What was measured:
[1] = target: glucocorticoid receptor (GR) recombinant ligand binding domain (LBD) (Homo sapiens (Human), UniProt P04150); assay: GR binding fluorescence polarisation (FP) assay; conditions: displacement of fluorescently tagged ligand
Experimental: Binding of test compounds to the glucocorticoid receptor (GR) is determined using a fluorescence polarisation (FP) assay utilising a recombinant ligand binding domain (LBD) of GR. The test compounds are assessed by their ability to displace a fluorescently tagged ligand and detection of the resulting decrease in fluorescence polarisation.

[2] = system: induction of TAT by dexamethasone in HepG2 cells; assay: Hep G2 TAT assay (inhibition of dexamethasone-induced TAT); type: cell-based, human; conditions: challenge of 100 nM dexamethasone, IC50 converted to Ki by Cheng and Prusoff equation

Sequence of glucocorticoid receptor (GR) recombinant ligand binding domain (LBD) (P04150 524-758): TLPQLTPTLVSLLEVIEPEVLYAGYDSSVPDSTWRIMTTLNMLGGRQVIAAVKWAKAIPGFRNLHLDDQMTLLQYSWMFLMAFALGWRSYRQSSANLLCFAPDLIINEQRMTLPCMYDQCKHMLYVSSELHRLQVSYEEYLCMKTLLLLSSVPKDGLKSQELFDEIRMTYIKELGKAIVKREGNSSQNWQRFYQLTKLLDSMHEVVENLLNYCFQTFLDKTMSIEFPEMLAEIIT

Row | Structure (SMILES) | IC50 [1] | Ki [2]
1 | COc1cc2c(cnn2-c2ccc(F)c(C#N)c2)cc1C1(Cc2ccccc2)CCN(S(=O)(=O)c2cnn(C)n2)C1 (stereo not shown) [Example 243, 5-(5-(3-benzyl-1-((2-methyl-2H-1,2,3-triazol-4-yl)sulfonyl)pyrrolidin-3-yl)-6-methoxy-1H-indazol-1-yl)-2-fluorobenzonitrile] | 65 nM | 38 nM
2 | Cc1cc2c(cnn2-c2ccc(=O)n(C(F)F)c2)cc1C1(Cc2ccccc2)CCN(S(=O)(=O)c2cnn(C)n2)C1 (stereo not shown) [Example 247, 5-(5-(3-benzyl-1-((2-methyl-2H-1,2,3-triazol-4-yl)sulfonyl)pyrrolidin-3-yl)-6-methyl-1H-indazol-1-yl)-1-(difluoromethyl)pyridin-2(1H)-one] | 55 nM | 240 nM
3 | Cc1cc2c(cnn2-c2cnn(C)c2)cc1C1(Cc2ccccc2)CCN(S(=O)(=O)c2cnn(C)n2)C1 (stereo not shown) [Example 249, 5-(3-benzyl-1-((2-methyl-2H-1,2,3-triazol-4-yl)sulfonyl)pyrrolidin-3-yl)-6-methyl-1-(1-methyl-1H-pyrazol-4-yl)-1H-indazole] | 4.8 nM | 39 nM
4 | [2H]C([2H])([2H])n1cc(-n2ncc3cc(C4(Cc5ccccc5)CCN(S(=O)(=O)c5cnn(C)n5)C4)c(C)cc32)cn1 (stereo not shown) [Example 250, 5-(3-benzyl-1-((2-methyl-2H-1,2,3-triazol-4-yl)sulfonyl)pyrrolidin-3-yl)-6-methyl-1-(1-(methyl-d3)-1H-pyrazol-4-yl)-1H-indazole] | 4.1 nM | 26 nM
5 | Cc1cc2c(cnn2-c2cnn(C)c2C)cc1C1(Cc2ccccc2)CCN(S(=O)(=O)c2cnn(C)n2)C1 (stereo not shown) [Example 253, 5-(3-benzyl-1-((2-methyl-2H-1,2,3-triazol-4-yl)sulfonyl)pyrrolidin-3-yl)-1-(1,5-dimethyl-1H-pyrazol-4-yl)-6-methyl-1H-indazole] | 24 nM | 240 nM
6 | Cc1cc2c(cnn2-c2cnn(C(F)(F)F)c2)cc1C1(Cc2ccccc2)CCN(S(=O)(=O)c2cnn(C)n2)C1 (stereo not shown) [Example 254, 5-(3-benzyl-1-((2-methyl-2H-1,2,3-triazol-4-yl)sulfonyl)pyrrolidin-3-yl)-6-methyl-1-(1-(trifluoromethyl)-1H-pyrazol-4-yl)-1H-indazole] | 87 nM | 44 nM
7 | Cc1cc2c(cnn2-c2cnn(C(F)F)c2)cc1C1(Cc2ccccc2)CCN(S(=O)(=O)c2cnn(C)n2)C1 (stereo not shown) [Example 255, 5-(3-benzyl-1-((2-methyl-2H-1,2,3-triazol-4-yl)sulfonyl)pyrrolidin-3-yl)-1-(1-(difluoromethyl)-1H-pyrazol-4-yl)-6-methyl-1H-indazole] | 27 nM | 44 nM
8 | Cc1cc2c(cnn2-c2ccn(C)n2)cc1C1(Cc2ccccc2)CCN(S(=O)(=O)c2cnn(C)n2)C1 (stereo not shown) [Example 259, 5-(3-benzyl-1-((2-methyl-2H-1,2,3-triazol-4-yl)sulfonyl)pyrrolidin-3-yl)-6-methyl-1-(1-methyl-1H-pyrazol-3-yl)-1H-indazole] | 180 nM | 540 nM
9 | [2H]C([2H])([2H])n1cc(-n2ncc3cc(C4(Cc5ccccc5)CCN(S(=O)(=O)c5cnn(C)n5)C4)c(C)cc32)ccc1=O (stereo not shown) [Example 261, 5-(5-(3-benzyl-1-((2-methyl-2H-1,2,3-triazol-4-yl)sulfonyl)pyrrolidin-3-yl)-6-methyl-1H-indazol-1-yl)-1-(methyl-d3)pyridin-2(1H)-one] | 2.9 nM | 44 nM
10 | Cc1cc2c(cnn2-c2cnn(C3COC3)c2)cc1C1(Cc2ccccc2)CCN(S(=O)(=O)c2cnn(C)n2)C1 (stereo not shown) [Example 264, 5-(3-benzyl-1-((2-methyl-2H-1,2,3-triazol-4-yl)sulfonyl)pyrrolidin-3-yl)-6-methyl-1-(1-(oxetan-3-yl)-1H-pyrazol-4-yl)-1H-indazole] | 26 nM | 210 nM
11 | COc1cc2c(cnn2-c2ccc(=O)n(C)c2)cc1C1(Cc2ccccc2)CCN(S(=O)(=O)c2cnn(C)n2)C1 (stereo not shown) [Example 265, 5-(5-(3-benzyl-1-((2-methyl-2H-1,2,3-triazol-4-yl)sulfonyl)pyrrolidin-3-yl)-6-methoxy-1H-indazol-1-yl)-1-methylpyridin-2(1H)-one] | 16 nM | 120 nM
12 | Cc1cc2c(cnn2-c2ccc(=O)[nH]c2)cc1C1(Cc2ccccc2)CCN(S(=O)(=O)c2cnn(C)n2)C1 (stereo not shown) [Example 267, 5-(5-(3-benzyl-1-((2-methyl-2H-1,2,3-triazol-4-yl)sulfonyl)pyrrolidin-3-yl)-6-methyl-1H-indazol-1-yl)pyridin-2(1H)-one] | 5.6 nM | 93 nM
13 | Cc1cc2c(cnn2-c2cc(C)c(=O)n(C)c2)cc1C1(Cc2ccccc2)CCN(S(=O)(=O)c2ccc(F)c(F)c2)C1 (stereo not shown) [Example 271, 5-(5-(3-benzyl-1-((3,4-difluorophenyl)sulfonyl)pyrrolidin-3-yl)-6-methyl-1H-indazol-1-yl)-1,3-dimethylpyridin-2(1H)-one] | 20 nM | 55 nM
14 | Cc1cc2c(cnn2-c2cnn(C)c2)cc1C1(Cc2ccccc2)CCN(S(=O)(=O)c2ccc(F)c(F)c2)C1 (stereo not shown) [Example 272, 5-(3-benzyl-1-((3,4-difluorophenyl)sulfonyl)pyrrolidin-3-yl)-6-methyl-1-(1-methyl-1H-pyrazol-4-yl)-1H-indazole] | 22 nM | 29 nM

More lines, main results first:

Row | IC50 [1] | Structure (SMILES) | Ki [2]
15 | 28 nM | Cc1cc2c(cnn2-c2ccc(F)c(C#N)c2)cc1C1(Cc2ccccc2)CCN(S(=O)(=O)c2cnn(C)n2)C1 (stereo not shown) [Example 239, 5-(5-(3-benzyl-1-((2-methyl-2H-1,2,3-triazol-4-yl)sulfonyl)pyrrolidin-3-yl)-6-methyl-1H-indazol-1-yl)-2-fluorobenzonitrile] | 36 nM
16 | 18 nM | Cc1cc2c(cnn2-c2ccc(F)c(CO)c2)cc1C1(Cc2ccccc2)CCN(S(=O)(=O)c2cnn(C)n2)C1 (stereo not shown) [Example 242, (5-(5-(3-benzyl-1-((2-methyl-2H-1,2,3-triazol-4-yl)sulfonyl)pyrrolidin-3-yl)-6-methyl-1H-indazol-1-yl)-2-fluorophenyl)methanol] | 44 nM
17 | 6.3 nM | Cc1cc2c(cnn2-c2cc(F)c(=O)n(C)c2)cc1C1(Cc2ccccc2)CCN(S(=O)(=O)c2cnn(C)n2)C1 (stereo not shown) [Example 246, 5-(5-(3-benzyl-1-((2-methyl-2H-1,2,3-triazol-4-yl)sulfonyl)pyrrolidin-3-yl)-6-methyl-1H-indazol-1-yl)-3-fluoro-1-methylpyridin-2(1H)-one] | 49 nM
18 | 55 nM | Cc1cc2c(cnn2-c2cc(Cl)c(=O)n(C)c2)cc1C1(Cc2ccccc2)CCN(S(=O)(=O)c2cnn(C)n2)C1 (stereo not shown) [Example 248, 5-(5-(3-benzyl-1-((2-methyl-2H-1,2,3-triazol-4-yl)sulfonyl)pyrrolidin-3-yl)-6-methyl-1H-indazol-1-yl)-3-chloro-1-methylpyridin-2(1H)-one] | 260 nM
19 | 27 nM | COc1nn(C)cc1-n1ncc2cc(C3(Cc4ccccc4)CCN(S(=O)(=O)c4cnn(C)n4)C3)c(C)cc21 (stereo not shown) [Example 251, 5-(3-benzyl-1-((2-methyl-2H-1,2,3-triazol-4-yl)sulfonyl)pyrrolidin-3-yl)-1-(3-methoxy-1-methyl-1H-pyrazol-4-yl)-6-methyl-1H-indazole] | 180 nM
20 | 29 nM | Cc1cc2c(cnn2-c2cnn(C3CC3)c2)cc1C1(Cc2ccccc2)CCN(S(=O)(=O)c2cnn(C)n2)C1 (stereo not shown) [Example 252, 5-(3-benzyl-1-((2-methyl-2H-1,2,3-triazol-4-yl)sulfonyl)pyrrolidin-3-yl)-1-(1-cyclopropyl-1H-pyrazol-4-yl)-6-methyl-1H-indazole] | 94 nM
21 | 52 nM | Cc1cc2c(cnn2-c2cn(C)nc2C)cc1C1(Cc2ccccc2)CCN(S(=O)(=O)c2cnn(C)n2)C1 (stereo not shown) [Example 257, 5-(3-benzyl-1-((2-methyl-2H-1,2,3-triazol-4-yl)sulfonyl)pyrrolidin-3-yl)-1-(1,3-dimethyl-1H-pyrazol-4-yl)-6-methyl-1H-indazole] | 220 nM
22 | 31 nM | CCn1cc(-n2ncc3cc(C4(Cc5ccccc5)CCN(S(=O)(=O)c5cnn(C)n5)C4)c(C)cc32)cn1 (stereo not shown) [Example 258, 5-(3-benzyl-1-((2-methyl-2H-1,2,3-triazol-4-yl)sulfonyl)pyrrolidin-3-yl)-1-(1-ethyl-1H-pyrazol-4-yl)-6-methyl-1H-indazole] | 76 nM
23 | 150 nM | Cc1cc2c(cnn2-c2ccnn2C)cc1C1(Cc2ccccc2)CCN(S(=O)(=O)c2cnn(C)n2)C1 (stereo not shown) [Example 260, 5-(3-benzyl-1-((2-methyl-2H-1,2,3-triazol-4-yl)sulfonyl)pyrrolidin-3-yl)-6-methyl-1-(1-methyl-1H-pyrazol-5-yl)-1H-indazole] | 350 nM
24 | 280 nM | Cc1cc2c(cnn2-c2cc(C3CC3)c(=O)n(C)c2)cc1C1(Cc2ccccc2)CCN(S(=O)(=O)c2cnn(C)n2)C1 (stereo not shown) [Example 262, 5-(5-(3-benzyl-1-((2-methyl-2H-1,2,3-triazol-4-yl)sulfonyl)pyrrolidin-3-yl)-6-methyl-1H-indazol-1-yl)-3-cyclopropyl-1-methylpyridin-2(1H)-one] | 190 nM
25 | 110 nM | CCc1cc(-n2ncc3cc(C4(Cc5ccccc5)CCN(S(=O)(=O)c5cnn(C)n5)C4)c(C)cc32)cn(C)c1=O (stereo not shown) [Example 263, 5-(5-(3-benzyl-1-((2-methyl-2H-1,2,3-triazol-4-yl)sulfonyl)pyrrolidin-3-yl)-6-methyl-1H-indazol-1-yl)-3-ethyl-1-methylpyridin-2(1H)-one] | 100 nM
26 | 4.7 nM | Cc1cc2c(cnn2-c2ccc(=O)n(C)c2)cc1C1(Cc2ccccc2)CCN(S(=O)(=O)c2cnn(C)n2)C1 (stereo not shown) [Example 266, 5-(5-(3-benzyl-1-((2-methyl-2H-1,2,3-triazol-4-yl)sulfonyl)pyrrolidin-3-yl)-6-methyl-1H-indazol-1-yl)-1-methylpyridin-2(1H)-one] | 40 nM
